# In patent US11576860B2, “Retrieval systems and related methods” (Massachusetts Institute of Technology, priority 2018, dated 2023):
# Legend:
# [1] = cited from earlier work
# [2] = pig, in vivo
# [3] = Blood concentrations of doxycycline hyclate after deployment of drug delivery formulations in pigs (Example 1); assay type: in vivo; conditions: drug/vinylpolysiloxane pills (32% drug loading) deployed in three Yorkshire pigs
# Procedure: The model drug, doxycycline hyclate, is added to the Zhermack Elite Double 22 base and catalyst to obtain a final drug loading percentage of 32%. Each pill has around 30 mg of drug (FIG. 1B). Drug crystals less than 75 μm can be visualized on the surface of the pill using scanning electron microscope (FIG. 1C). A series of pills with 0.5 mm holes inside them can be strung on a retention frame such as nitinol superelastic wire and encased in a Tygon tubing with stainless steel beads and Nusil glue at the ends of the article (FIG. 1D). Other drugs such as moxifloxacin, isoniazid, pyrazinamide, and ethambutol can also be mixed with the Zhermack Elite Double 22 base and catalyst at drug loading percentages greater than 25 wt %. Stability of the drug form can be evaluated using proton nuclear magnetic resonance spectroscopy after extraction of the drug from the matrix in water.
# The pills were created by first mixing the drug into the Zhermack Elite Double 22 base and catalyst. […] Drug loading percentages were determined relative to the finally cured silicone mixture weight. […]
# After deployment of the drug delivery formulations in three Yorkshire pigs in a large animal model, concentrations of doxycycline hyclate in the blood were measured, and drug release is sustained for at least 7 days with non-zero values (FIG. 3B).
Compound,stability in acid [1],duration of detectable serum concentrations [2],drug release sustained with non-zero concentrations in the blood [3],duration drug was detectable in serum [2],time after which no drug was detectable in serum [2] [days],time to detectable serum concentrations [2] [min]
CO[C@H]1/C=C/O[C@@]2(C)Oc3c(C)c(O)c4c(O)c(c(/C=N/N5CCN(C)CC5)c(O)c4c3C2=O)NC(=O)/C(C)=C\C=C\[C@H](C)[C@H](O)[C@@H](C)[C@@H](O)[C@@H](C)[C@H](OC(C)=O)[C@@H]1C [rifampicin],rapidly degrades in acid,a week,–,–,–,–
doxycycline hyclate,–,–,at least 7 days,at least 28 days,3,≤ 15
